In one data set the test system is MV4-11. The arrangement: method as in PMID 30427680, PMID 34959180, PMID 34694800, PMID 36332882, PMID 38655686. The note with it: reported FLT3 PROTACs, Figure 1; cited from earlier work.
Another data set has as its system MOLM-13. The arrangement: method as in PMID 30427680, PMID 34959180, PMID 34694800, PMID 36332882, PMID 38655686. The note with it: reported FLT3 PROTACs, Figure 1; cited from earlier work.
The subject of data set [1] is FLT3-ITD. The experiment in a line: KINOMEscan binding assay. As for the experimental part:
Binding to FLT3-ITD was determined using the KINOMEscan^TM assay (Eurofins DiscoverX Corporation, San Diego, CA, USA)
Kinase-tagged T7 phage strains were prepared in an E. coli host derived from the BL21 strain. E. coli were grown to log-phase and infected with T7 phage and incubated with shaking at 32 °C until lysis. The lysates were centrifuged and filtered to remove cell debris. The remaining kinases were produced in HEK-293 cells and subsequently tagged with DNA for qPCR detection. […] The liganded beads were blocked with excess biotin and washed with blocking buffer (SeaBlock (Pierce), 1% BSA, 0.05% Tween 20, 1 mM DTT) to remove unbound ligand and to reduce non-specific binding. […] The compounds were then diluted directly into the assays such that the final concentration of DMSO was 0.9%. All reactions performed in polypropylene 384-well plate. Each was a final volume of 0.02 mL. […] The kinase concentration in the eluates was measured by qPCR.

In data set [2] the target is T1, FLT3-ITD (Homo sapiens, UniProt P36888, INS600HVDFREYEYD).
T1 sequence (P36888 with tags, fused parts or gaps INS600HVDFREYEYD): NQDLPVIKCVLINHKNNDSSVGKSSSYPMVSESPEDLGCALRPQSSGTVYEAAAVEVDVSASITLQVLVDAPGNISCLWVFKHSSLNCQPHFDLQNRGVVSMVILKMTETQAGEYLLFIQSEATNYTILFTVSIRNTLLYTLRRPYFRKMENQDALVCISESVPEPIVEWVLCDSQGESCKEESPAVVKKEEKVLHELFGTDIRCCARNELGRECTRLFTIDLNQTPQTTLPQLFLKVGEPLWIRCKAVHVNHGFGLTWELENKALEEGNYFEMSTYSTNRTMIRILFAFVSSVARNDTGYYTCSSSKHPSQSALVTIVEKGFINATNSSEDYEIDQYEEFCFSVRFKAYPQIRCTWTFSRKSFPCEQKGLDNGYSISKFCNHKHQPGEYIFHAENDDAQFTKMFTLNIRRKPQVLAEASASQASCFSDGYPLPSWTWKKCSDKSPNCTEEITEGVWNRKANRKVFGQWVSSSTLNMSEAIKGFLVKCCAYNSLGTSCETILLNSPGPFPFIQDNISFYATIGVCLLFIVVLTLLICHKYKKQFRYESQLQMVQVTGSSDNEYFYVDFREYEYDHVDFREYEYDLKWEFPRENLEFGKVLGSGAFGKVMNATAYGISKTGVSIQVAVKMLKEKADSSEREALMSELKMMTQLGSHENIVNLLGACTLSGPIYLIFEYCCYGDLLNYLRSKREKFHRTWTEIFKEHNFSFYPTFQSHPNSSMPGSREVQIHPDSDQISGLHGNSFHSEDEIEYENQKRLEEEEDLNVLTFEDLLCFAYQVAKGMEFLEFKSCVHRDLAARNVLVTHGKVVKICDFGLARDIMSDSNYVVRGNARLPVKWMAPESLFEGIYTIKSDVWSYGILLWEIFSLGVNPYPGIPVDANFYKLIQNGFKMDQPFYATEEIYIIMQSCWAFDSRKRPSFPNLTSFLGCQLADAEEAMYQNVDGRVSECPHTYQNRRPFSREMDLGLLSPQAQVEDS
The experiment in a line: FLT3-ITD degradation, immunoblot in MV4-11 cells. The following applies: MV4-11, 24 h, read-out: % FLT3-ITD Degradation at 50 nM. Background: A western blot detects proteins with antibodies after separation by electrophoresis.

Data set [3] is described as follows: Non-enzymatic stability under cellular assay conditions (HPLC). The class given is physicochemical. The note with it: compound remaining, assay medium DMEM, 37 °C. As for the experimental part:
An important aspect in the development of PROTACs is testing chemical stability. On the one hand, we tested all PROTACs produced for their stability under cellular assay conditions. For this purpose, 10 µM solutions of the PROTACs and reference inhibitor were incubated for 72 h at 37 °C with the assay medium DMEM. The remaining amount of the compounds was determined by HPLC after 6, 12, 24, 48 and 72 h. The results of the stability studies are shown in Table S2 (Supplementary Information).
The developed compounds were diluted in the assay media consisting of a mixture of DMEM (50%), DMSO (10%) and acetonitrile (40%) at pH 7.4 and incubated at 37 °C for 72 h. The quantity of the compounds was measured after 6, 12, 24, 48, and 72 h by HPLC using an XTerra RP18 column ([…], 3.9 mm × 100 mm) from the manufacturer Waters (Milford, MA, USA) and two LC-10AD pumps, an SPD-M10AVP PDA detector, and an SIL-HT autosampler, all from the manufacturer Shimadzu (Kyoto, Japan).

The target of another data set is CSNK1D (Homo sapiens, UniProt P48730). The experiment in a line: NanoBRET CELLinib128.
Chain of CSNK1D (P48730 whole entry): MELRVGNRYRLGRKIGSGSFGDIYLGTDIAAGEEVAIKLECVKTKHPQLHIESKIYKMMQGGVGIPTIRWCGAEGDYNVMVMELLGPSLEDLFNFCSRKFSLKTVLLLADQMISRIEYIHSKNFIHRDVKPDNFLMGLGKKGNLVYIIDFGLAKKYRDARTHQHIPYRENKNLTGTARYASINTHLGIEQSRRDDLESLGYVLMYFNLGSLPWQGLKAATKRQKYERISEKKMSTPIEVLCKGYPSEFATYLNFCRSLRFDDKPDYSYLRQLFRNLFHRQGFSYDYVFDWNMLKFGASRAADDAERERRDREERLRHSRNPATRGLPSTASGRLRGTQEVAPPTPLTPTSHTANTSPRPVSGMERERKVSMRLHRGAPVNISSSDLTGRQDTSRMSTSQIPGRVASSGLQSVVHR

On to `Cc1c(NC(=O)CN2CCN(CC3CCN(c4ccc5c(c4)C(=O)N(C4CCC(=O)NC4=O)C5=O)CC3)CC2)c[nH]c1/C=C1\C(=O)Nc2ccc(F)cc21` (stereo not shown) [A20], for which the IC50 with MV4-11 is 39.9 ± 3.4 nM; in the data set on MOLM-13, 170 ± 3.4 nM.
With `CCc1nc(C(N)=O)c(Nc2ccc(N3CCC(N4CCN(C(=O)COc5cccc6c5CN(C5CCC(=O)NC5=O)C6=O)CC4)CC3)c(OC)c2)nc1NC1CCOCC1` (stereo not shown) [LWY713], the concentration for half-maximal inhibition (IC50) in the data set with MV4-11 was 1.5 nM.
In the case of `Cc1ncsc1-c1ccc([C@H](C)NC(=O)[C@@H]2C[C@@H](O)CN2C(=O)[C@@H](NC(=O)CCCCCNC(=O)c2cc(Oc3ccc(NC(=O)Nc4cc(C(C)(C)C)on4)cc3)ccn2)C(C)(C)C)cc1` [MA78, 4-(4-(3-(5-(tert-Butyl)isoxazol-3-yl)ureido)phenoxy)-N-(6-(((S)-1-((2S,4R)-4-hydroxy-2-(((S)-1-(4-(4-methylthiazol-5-yl)phenyl)ethyl)carbamoyl)pyrrolidin-1-yl)-3,3-dimethyl-1-oxobutan-2-yl)amino)-6-oxohexyl)picolinamide], the “% FLT3-ITD Binding at 1 µM” value in the data set with FLT3-ITD [1] was 89 ± 2%. For the same molecule, on FLT3-ITD [2], the inhibition at 0.05 µM came to 80%. The “0 h - %” value in data set [3] (0 h) is 100%. This molecule registered a 6 h- % in data set [3] (6 h) of 99.5%. The 12 h- % in data set [3] (12 h) is 99.5%. The same molecule displayed a 24 h- % in data set [3] (24 h) of 99.9%. In data set [3] (48 h), this molecule had a 48 h- % of 100.6%. For the same molecule, the 72 h- % in data set [3] (72 h) is 101.0%.
For `Cc1ncsc1-c1ccc(CNC(=O)[C@@H]2C[C@@H](O)CN2C(=O)[C@@H](NC(=O)CCOCCOCCOc2ccc3c(c2)sc2nc(-c4ccc(NC(=O)Nc5cc(C(C)(C)C)on5)cc4)cn23)C(C)(C)C)cc1` [Quizaritinib-based PROTAC], the concentration for half-maximal inhibition (IC50) in the data set with MV4-11 was 0.6 ± 0.08 nM.
Turning to `CN[C@@H]1C[C@H]2O[C@@](C)([C@@H]1OC)n1c3ccccc3c3c4c(c5c6ccccc6n2c5c31)C(=O)NC4` [Staurosporine], the EC50 on CSNK1D worked out at 10400 nM.
Take `CCc1nc(C(N)=O)c(Nc2ccc(N3CCN(CCC4CCN(CC(=O)N[C@H](C(=O)N5C[C@H](O)C[C@H]5C(=O)N[C@@H](C)c5ccc(-c6scnc6C)cc5)C(C)(C)C)CC4)CC3)c(OC)c2)nc1NC1CCOCC1` [Z29]: the IC50 in the data set on MV4-11 was 5.5 ± 0.2 nM; in the data set on MOLM-13, 8 ± 0.2 nM.
Take `CNC(=O)c1cc(Cl)ccn1` [compound 1]: the concentration for half-maximal inhibition (IC50) with MV4-11 was 18.7 ± 2.1 nM; with MOLM-13, 10.1 ± 1 nM.
Turning to `Nc1ccc(O)cc1` [compound 2], the half-maximal inhibitory concentration (IC50) in the data set with MV4-11 is 9.2 ± 1 nM; in the data set with MOLM-13, 9.5 ± 0.7 nM.

As usually defined, the IC50 is the concentration that inhibits the measured activity by half. As usually defined, the EC50 is the concentration needed to bring the measured effect to its halfway point. The low end stands for a more potent agent, the high end for a less potent agent.

Source of the values: PMC13210772, “Dual FLT3/MAPK14 Proteolysis-Targeting Chimera (PROTAC) Induces Potent Acute Myeloid Leukemia Cell Death” (Pharmaceuticals, 2026).
